Experimental data from patent US20040029823A1, “Antisense oligonucleotide compositions and methods for the modulation of JNK proteins” (priority 1997, published 2004).
Strand notation (5' to 3'): a small letter for the sugar, then the base; units joined by * are phosphorothioate-linked, units joined directly phosphodiester-linked; [ ] holds rarer units or linkages, { } end groups; capitals alone tell only the bases. e = 2'-O-(2-methoxyethyl) (MOE); [5mC] = 5-methylcytosine; d = 2'-deoxy (DNA)

Columns and labels:
JNK1 mRNA = test: Northern assay of JNK1 mRNA expression in A549 cells; type: cell-based, human; conditions: for RNA % Control / RNA % Inhibition: 300 nM for 20 hours then 200 nM for 4 hours
Method: (§1) In order to evaluate the activity of potential JNK-modulating oligonucleotides, human lung carcinoma cell line A549 (American Type Culture Collection, Rockville, Md. No. ATCC CCL-185) cells or other cell lines as indicated in the Examples, were grown and treated with oligonucleotides or control solutions as detailed below. After harvesting, cellular extracts were prepared and examined for specific JNK mRNA levels or JNK protein levels (i.e., Northern or Western assays, respectively). In all cases, “% expression” refers to the amount of JNK-specific signal in an oligonucleotide-treated cell relative to an untreated cell (or a cell treated with a control solution that lacks oligonucleotide), and “% inhibition” is calculated as
100%−% Expression =% Inhibition.
Northern Assays: The mRNA expression of each JNK protein was determined by using a nucleic acid probe specifically hybridizable thereto. Nucleic acid probes specific for JNK1, JNK2 and JNK3 are described in Examples 3, 4 and 5, respectively. The probes were radiolabelled by means well known in the art (see, e.g., Short Protocols in Molecular Biology, 2nd Ed., Ausubel et al., Eds., John Wiley & Sons, New York, 1992, pages 3-11 to 2-3-44 and 4-17 to 4-18; Ruth, Chapter 6 In: Methods in Molecular Biology, Vol. 26: Protocols for Oligonucleotide Conjugates, Agrawal, ed., Humana Press Inc., Totowa, N.J., 1994, pages 167-185; and Chapter 10 In: Molecular Cloning: A Laboratory Manual, 2nd Ed., Sambrook et al., Eds., pages 10.1-10.70). The blots were stripped and reprobed with a ^32P-labeled glyceraldehyde 3-phosphate dehydrogenase (G3PDH) probe (Clontech Laboratories, Inc., Palo Alto, Calif.) in order to confirm equal loading of RNA and to allow the levels of JNK transcripts to be normalized with regard to the G3PDH signals.
A549 cells were grown in T-75 flasks until 80-90% confluent. At this time, the cells were washed twice with 10 mL of media (DMEM), followed by the addition of 5 mL of DMEM containing 20 μg/mL of LIPOFECTIN™ (i.e., 1:1 (w/w) DOTMA/DOPE, Life Technologies, Gaithersburg, Md.; DOTMA=N-[1-(2,3-dioleyoxy)propyl]-N,N,N-trimethylammonium chloride; DOPE=dioleoyl phosphatidylethanolamine). The oligonucleotides were added from a 10 μM stock solution to a final concentration of 400 nM, and the two solutions were mixed by swirling the flasks. As a control, cells were treated with LIPOFECTIN™ without oligonucleotide under the same conditions and for the same times as the oligonucleotide-treated samples. After 4 hours at 37° C., the medium was replaced with fresh DMEM containing 10% serum. The cells were allowed to recover for 18 hours. Total cellular RNA was then extracted in guanidinium, subject to gel electrophoresis and transferred to a filter according to techniques known in the art (see, e.g., Chapter 7 In: Molecular Cloning: A Laboratory Manual, 2nd Ed., Sambrook et al., Eds., pages 7.1-7.87, and Short Protocols in Molecular Biology, 2nd Ed., Ausubel et al., Eds., John Wiley & Sons, New York, 1992, pages 2-24 to 2-30 and 4-14 to 4-29). Filters were typically hybridized overnight to a probe specific for the particular JNK gene of interest in hybridization buffer (25 mM KPO4, pH 7.4; 5×SSC; 5× Denhardt's solution, 100 μg/ml Salmon sperm DNA and 50% formamide) (Alahari et al., Nucl. Acids Res., 1993, 21, 4079). This was followed by two washes with 1×SSC, 0.1% SDS and two washes with 0.25×SSC, 0.1% SDS. Hybridizing bands were visualized by exposure to X-OMAT AR film and quantitated using a PHOSPHORIMAGER™ essentially according to the manufacturer's instructions (Molecular Dynamics, Sunnyvale, Calif.)
B. JNK1-specific probes: In initial screenings of a set of oligonucleotides derived from the JNK1 sequence (Table 2) for biological activity, a cDNA clone of JNK1 (Derijard et al., Cell, 1994, 76, 1025) was radiolabeled and used as a JNK1-specific probe in Northern blots. […]

JNK1 protein = test: Western assay of JNK1 protein levels in A549 cells; type: cell-based, human; conditions: 300 nM for 20 hours then 200 nM for 4 hours
Method: as §1
Western Assays: A549 cells were grown and treated with oligonucleotides as described above. Cells were lysed, and protein extracts were electrophoresed (SDS-PAGE) and transferred to nitrocellulose filters by means known in the art (see, e.g., Chapter 18 In: Molecular Cloning: A Laboratory Manual, 2nd Ed., Sambrook et al., Eds., pages 18.34, 18.47-18.54 and 18.60-18.75)). The amount of each JNK protein was determined by using a primary antibody that specifically recognizes the appropriate JNK protein. The primary antibodies specific for each JNK protein are described in the appropriate Examples. The primary antibodies were detected by means well known in the art (see, e.g., Short Protocols in Molecular Biology, 2nd Ed., Ausubel et al., Eds., John Wiley & Sons, New York, 1992, pages 10-33 to 10-35; and Chapter 18 In: Molecular Cloning: A Laboratory Manual, 2nd Ed., Sambrook et al., Eds., pages 18.1-18.75 and 18.86-18.88) and quantitated using a PHOSPHORIMAGER™ essentially according to the manufacturer's instructions (Molecular Dynamics, Sunnyvale, Calif.).
F. Western Assays: In order to assess the effect of oligonucleotides targeted to JNK1 mRNAs on JNK1 protein levels, Western assays were performed essentially as described above in Example 2, with the following exception(s) and/or modification(s). A primary antibody that specifically binds to JNK1 (catalog No. sc-474-G) was purchased from Santa Cruz Biotechnology, Inc. (Santa Cruz, Calif.; other JNK1-specific antibodies are available from StressGen Biotechnologies, Inc., Victoria, BC, Canada; and Research Diagnostics, Inc., Flanders, N.J.). In this experiment, cells were grown and treated with oligonucleotide at 300 nM for the initial 20 hours and then at 200 nM for 4 hours. At t=48 h, aliquots were removed for Northern and Western analyses, and fresh media was added to the cells. Aliquots for analysis were also taken at t=72 h. The samples from t=48 h and t=72 h were analyzed using the Northern and Western assays described above.

[1] = JNK1 mRNA time course, t=0 h after 4 hour treatment
[2] = JNK1 mRNA time course, time 272 h [sic] (t=72 h in text)
[3] = JNK1 mRNA, chemically modified oligonucleotides, dose 100 nM
[4] = JNK1 mRNA, chemically modified oligonucleotides, dose 400 nM

Substance | Normalized % Control (JNK1 mRNA; [3]) [%] | Normalized % Control (JNK1 mRNA; [4]) [%] | RNA % Control (JNK1 mRNA; JNK1 mRNA, t = 48 h) [%] | RNA % Control (JNK1 mRNA; JNK1 mRNA, t = 72 h) [%] | Protein % Control (JNK1 protein; t = 48 h) [%] | Protein % Control (JNK1 protein; t = 72 h) [%] | RNA % Inhibition (JNK1 mRNA; JNK1 mRNA, t = 72 h) | Protein % Inhibition (JNK1 protein; t = 48 h) | Protein % Inhibition (JNK1 protein; t = 72 h) [%] | RNA % Inhibition (JNK1 mRNA; JNK1 mRNA, t = 48 h) [%] | also measured
12539 (antisense CTCTCTGTAGGCCCGCTTGG; DNA, all phosphorothioate, methylation of C not given here) [compound 12539] | 56.4 | 26.7 | 6.7 | 11.7 | 44.3 | 29.2 | – | – | – | – | Normalized % Control (JNK1 mRNA; JNK1 mRNA dose response, 50 nM): 70.3%; Normalized % Control (JNK1 mRNA; JNK1 mRNA dose response, 100 nM): 51.6%; Normalized % Control (JNK1 mRNA; JNK1 mRNA dose response, 200 nM): 22.4%; Normalized % Control (JNK1 mRNA; JNK1 mRNA dose response, 400 nM): 11.1%; % INHIBITION (JNK1 mRNA; [1]): 85.9%; Normalized % Control (JNK1 mRNA; [1]): 14.1%; % INHIBITION (JNK1 mRNA; JNK1 mRNA time course, t=4 h): 94.1%; Normalized % Control (JNK1 mRNA; JNK1 mRNA time course, t=4 h): 5.9%; % INHIBITION (JNK1 mRNA; JNK1 mRNA time course, t=12 h): 88.4%; Normalized % Control (JNK1 mRNA; JNK1 mRNA time course, t=12 h): 11.6%; % INHIBITION (JNK1 mRNA; JNK1 mRNA time course, t=48 h): 79.0%; Normalized % Control (JNK1 mRNA; JNK1 mRNA time course, t=48 h): 21.0%; % INHIBITION (JNK1 mRNA; [2]): 58.5%; Normalized % Control (JNK1 mRNA; [2]): 41.5%; % EXPRESSION (JNK1 mRNA; JNK1 mRNA, A549 cells, 400 nM oligonucleotide, relative to LIPOFECTIN-only control): 9%
15345 (antisense e[5mC]*eT*e[5mC]*eT*e[5mC]*eT*eG*eT*eA*eG*eG*e[5mC]*e[5mC]*e[5mC]*eG*e[5mC]*eT*eT*eG*eG) [compound 15345] | 95.4 | 89.1 | 70.3 | 187.4 | 105.0 | 87.8 | (0.0) % | (0.0) % | 12.2 | – | –
15347 (antisense CTCTCTGTAGGCCCGCTTGG; sugars from the 5' end e5 d9 e6, [5mC] at 1, 3, 5, 16, linkages o4 s10 o5 (s phosphorothioate, o phosphodiester), methylation of C not given here) [compound 15347] | 27.1 | 11.7 | 7.9 | 8.2 | 38.8 | 28.4 | 81.8% | – | – | 92.1 | inhibition of JNK1 mRNA expression (JNK1 mRNA; chemically modified derivatives of ISIS 12539, 400 nM (Table 5)): at least 88%
15348 (antisense CTCTCTGTAGGCCCGCTTGG; sugars from the 5' end e11 d9, [5mC] at 1, 3, 5, all phosphorothioate, methylation of C not given here) [compound 15348] | 30.4 | 32.9 | 24.3 | 28.0 | 58.3 | 41.7 | 72.0% | 41.7% | 58.3 | 75.7 | –
15349 (antisense CTCTCTGTAGGCCCGCTTGG; sugars from the 5' end d9 e11, [5mC] at 12, 13, 14, 16, all phosphorothioate, methylation of C not given here) [compound 15349] | 42.5 | 35.5 | 63.1 | 52.0 | 69.5 | 56.5 | 48.0% | 30.5% | 43.5 | 36.9 | –
15350 (antisense CTCTCTGTAGGCCCGCTTGG; sugars from the 5' end d9 e11, [5mC] at 12, 13, 14, 16, linkages s9 o10 (s phosphorothioate, o phosphodiester), methylation of C not given here) [compound 15350] | 71.1 | 41.3 | 49.2 | 54.4 | 71.7 | 58.4 | 45.6% | 28.3% | 41.6 | 50.0 | –
